Entries after “also recorded” stand apart in the source; their conditions may differ.

1 molecule from US20220401385A1, “Combination Therapy Based on PD-1 Signaling Inhibitors” (Kyoto University, priority 2019, published 2022) can be followed below.

Assay [1] deals with MC38 cells. The experiment in a line: MC38 mouse therapy model, tumor growth and survival. The class given is in vivo, C57BL/6 mice. As to the method:
FIG. 1-1 a) CD8^+ T cells or CD3^+ T cells were isolated from mice, and 2×10^5 cells were stimulated with CD3/CD28 beads in 96-well U plates. After 24 hours and 48 hours, cells and culture supernatant were collected, followed by measurement of spermidine (SPD) concentration by mass spectrometry. […] Ten days after inoculation, PD-L1 antibody (2 mg/kg), PD-L1 antibody+SPD (2 mg/kg), or SPD alone was administered. Subsequently, PD-L1 antibody was administered 4 times at a regular interval of 5 days, and SPD was administered 8 times at a regular interval of 3 days. Tumor growth curve and survival curve are shown. c) Draining lymph nodes (DLNs) of mice were isolated 13 days after tumor inoculation, and stained with antibodies to CD8, CD44 and CD62L. The number of cells in draining lymph node (cells/DLN) in each treatment group is shown at the left side. After being gated, CD8^+ T cells were fractionated with CD44 and CD62L into P1 to P4 cell populations. Percentages and cell numbers of P1 to P4 in each treatment group are shown. d) Tumor was isolated 13 days after tumor inoculation and treated with collagenase. Percentages and numbers per mg tumor of tumor-infiltrating CD8^+ CD45.2^+ cells are shown. For statistical analysis, ANOVA was used. * p<0.05, ** p<0.01, *** p<0.001, **** p<0.0001.
FIG. 8 MC38 cells (5×10^5) were intradermally inoculated into C57BL/6 mice. Ten days after inoculation, PD-L1 antibody (2 mg/kg), PD-L1 antibody+SPD (2 mg/kg) or PD-L1 antibody+SPM (6 mg/kg) was administered. Subsequently, […] was administered 4 times at a regular interval of 5 days, whereas SPD and SPM were administered 8 times at a regular interval of 3 days. Tumor growth curve is shown.
MC38 cells (5×10^5) were intradermally injected on the right flank. Ten days after inoculation, PD-L1 antibody (1-111A; prepared by and stored at the Department of Immunology and Genomic Medicine, Graduate School of Medicine, Kyoto University) (Immunology Letters 84 (2002) 57-62) (2 mg/kg), PD-L1 antibody+SPD (2 mg/kg) or SPD alone was administered to mice. Subsequently, PD-L1 antibody was administered 4 times at a regular interval of 5 days, and SPD was administered 8 times at a regular interval of 3 days. Tumors were measured on every alternate day, and tumor volumes were calculated using the formula for typical ellipsoid, π×(length×breadth×height/6).

Assay [2] concerns draining lymph node CD8+ T cells. The experiment in a line: Seahorse OCR/ECAR of draining lymph node CD8+ T cells of treated mice. The following applies: combined therapy compared to PD-1 inhibition alone. The class given is in vivo, C57BL/6 mice. The procedure: FIG. 2-1 a) Treated mice were analyzed for draining lymph nodes and the inside of tumor. Briefly, draining lymph nodes of mice were isolated 13 days after tumor inoculation, and stained with antibodies to CD8 and Sca-1. FACS diagram and percentages of Sca-1^+ cells in CD8^+ T cells are shown. b) CD8^+ T cells in isolated draining lymph nodes were stimulated with CD3/CD28 antibody beads. After 24 hours, cell proliferation was examined by means of ^3H uptake. At the same time, IFN-γ concentration in culture supernatant was measured. c) Tumor from the same mice as described above was treated with collagenase. Then, expression rates of PD-1 and Tim3 in tumor-infiltrating CD8^+ T cells were analyzed. d) Oxygen consumption rate (OCR) and extracellular acidification rate (ECAR) of draining lymph node CD8^+ T cells were measured with a Seahorse analyzer (N=3 wells). For statistical analysis, ANOVA was used. * p<0.05, ** p<0.01, *** p<0.001, **** p<0.0001.
Oxygen consumption rates were measured using an XF96 Extracellular Flux Analyzer (Seahorse Bioscience). CD8^+ T cells (4×10^5) per well were seeded in a determined XF96 plate. The four chemical modulators of mitochondrial oxidative phosphorylation, which came with an XF Cell Mito Stress Test Kit (Seahorse Bioscience), were added to the module sequentially. In brief, basal OCR measurement was performed […] sequential addition of oligomycin, FCCP, and rotenone/antimycin A. SRC and ATP production rates were calculated by the following formulas:
SRC (pmo; 02/min)=OCRmaximal−OCRbasal
mitoATP (pmol ATP/min)=(OCRbasal−OCRoligo)×5.5.

In assay [3] the test system is CD44 low CD8+ T cells. Put plainly: PI and Annexin apoptosis assay, CD44 low cells. The assay is classed as cell-based, mice. The note with it: in the presence of SPD 0.2 μM. The procedure:
FIG. 4 CD8^+ T cells were isolated from the spleen of mice without tumor inoculation, and further isolated into CD44^+ (CD44 high) and CD44^− (CD44 low) cell populations. a) CD44 low cells were simulated with CD3/CD28 antibody beads and SPD (0.2 μM). After 30 minutes, 1 hour, 2 hours and 72 hours, OCR was measured with a Seahorse analyzer. b) At the same time, total ATP production and glycolytic pathway-derived or mitochondrial activity-derived ATP production were calculated at 30-minute, 1-hour and 2-hour. c) CD44 low cells (2×10^5 cells) were stimulated with CD3/CD28 antibody beads and SPD (0.2 μM). After 24 hours, cell proliferation was examined by means of 3H uptake. d) Spare respiratory capacity (SRC) was calculated from the OCR measurement after 72 hours in a), and results with and without SPD were compared. e) CD44 low cells were stimulated with CD3/CD28 antibody beads and SPD (0.2 μM). After 24 hours, frequencies between apoptotic and viable cells were calculated by PI and Annexin staining. f-j) CD44 high cells were analyzed under the same conditions and by the same methods as described in a-e) above. […] All flow cytometry experiments were performed on FACS Canto II (BD Biosciences) and analyzed using FlowJo software (FLOWJO, LLC). […]

With `NCCCCNCCCN` [SPD, spermidine], the “antitumor effect of the PD-1 inhibitory antibody” value in assay [1] (SPD (2 mg/kg) in combination with PD-L1 antibody (2 mg/kg), MC38 in C57BL/6 mice) was “synergistically improved; also recorded: greatly enhanced”. Further, the antitumor effect result in assay [1] (spermidine alone, in living bodies) is listed as “no antitumor effect”. Moreover, in assay [2], the “glycolysis (ECAR) of CD8+ T cells” value is on record as “increased”, the “oxygen consumption (OCR) of CD8+ T cells” value was “increased” and the “spare respiratory capacity (SRC) of CD8+ T cells” value is reported as “increased”. Besides, in assay [3], the apoptotic cells result is recorded as “decreased” and the viable cells result was “increased; also recorded: significantly high”.
